What all share (type): functional
Experiment [1] concerns the target Vascular endothelial growth factor receptor 1 (Homo sapiens, UniProt P17948).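 Also: measured within a kinome-wide profiling panel, FLT1 as the panel member.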
Experiment [2] addresses T1, Tyrosine-protein kinase receptor TYRO3 (Homo sapiens, UniProt Q06418).
T1 sequence (Q06418 whole entry): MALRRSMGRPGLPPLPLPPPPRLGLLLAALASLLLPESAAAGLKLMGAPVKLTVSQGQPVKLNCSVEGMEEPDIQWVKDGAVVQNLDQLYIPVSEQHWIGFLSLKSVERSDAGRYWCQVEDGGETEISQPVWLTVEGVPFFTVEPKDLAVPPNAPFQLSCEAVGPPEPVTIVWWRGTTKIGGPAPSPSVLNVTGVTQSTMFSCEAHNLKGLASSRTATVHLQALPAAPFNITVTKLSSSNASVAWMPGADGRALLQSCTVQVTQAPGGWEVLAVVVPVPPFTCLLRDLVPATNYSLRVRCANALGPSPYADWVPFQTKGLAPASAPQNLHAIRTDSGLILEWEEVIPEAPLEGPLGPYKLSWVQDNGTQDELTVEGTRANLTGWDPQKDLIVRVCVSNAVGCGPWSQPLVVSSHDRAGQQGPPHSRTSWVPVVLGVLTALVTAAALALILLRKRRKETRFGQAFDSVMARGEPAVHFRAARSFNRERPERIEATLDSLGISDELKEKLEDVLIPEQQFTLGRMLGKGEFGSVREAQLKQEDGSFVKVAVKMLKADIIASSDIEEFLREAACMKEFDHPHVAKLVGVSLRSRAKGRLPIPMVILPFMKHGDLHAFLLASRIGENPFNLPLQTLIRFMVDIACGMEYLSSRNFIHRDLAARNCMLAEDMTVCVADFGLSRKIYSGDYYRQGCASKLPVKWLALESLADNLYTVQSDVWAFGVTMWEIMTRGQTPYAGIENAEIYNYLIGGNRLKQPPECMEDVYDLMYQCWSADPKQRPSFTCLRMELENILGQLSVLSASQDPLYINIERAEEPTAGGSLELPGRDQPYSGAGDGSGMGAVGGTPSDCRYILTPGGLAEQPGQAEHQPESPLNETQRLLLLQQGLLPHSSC

In experiment [3] the target is Serine/threonine-protein kinase pim-1 (Homo sapiens, UniProt P11309).
Experiment [4] concerns the target T2, Serine/threonine-protein kinase D3 (Homo sapiens, UniProt O94806).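 Also: determined within a kinase panel screen, with PRKCN as the panel member.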
T2 sequence (O94806 whole entry): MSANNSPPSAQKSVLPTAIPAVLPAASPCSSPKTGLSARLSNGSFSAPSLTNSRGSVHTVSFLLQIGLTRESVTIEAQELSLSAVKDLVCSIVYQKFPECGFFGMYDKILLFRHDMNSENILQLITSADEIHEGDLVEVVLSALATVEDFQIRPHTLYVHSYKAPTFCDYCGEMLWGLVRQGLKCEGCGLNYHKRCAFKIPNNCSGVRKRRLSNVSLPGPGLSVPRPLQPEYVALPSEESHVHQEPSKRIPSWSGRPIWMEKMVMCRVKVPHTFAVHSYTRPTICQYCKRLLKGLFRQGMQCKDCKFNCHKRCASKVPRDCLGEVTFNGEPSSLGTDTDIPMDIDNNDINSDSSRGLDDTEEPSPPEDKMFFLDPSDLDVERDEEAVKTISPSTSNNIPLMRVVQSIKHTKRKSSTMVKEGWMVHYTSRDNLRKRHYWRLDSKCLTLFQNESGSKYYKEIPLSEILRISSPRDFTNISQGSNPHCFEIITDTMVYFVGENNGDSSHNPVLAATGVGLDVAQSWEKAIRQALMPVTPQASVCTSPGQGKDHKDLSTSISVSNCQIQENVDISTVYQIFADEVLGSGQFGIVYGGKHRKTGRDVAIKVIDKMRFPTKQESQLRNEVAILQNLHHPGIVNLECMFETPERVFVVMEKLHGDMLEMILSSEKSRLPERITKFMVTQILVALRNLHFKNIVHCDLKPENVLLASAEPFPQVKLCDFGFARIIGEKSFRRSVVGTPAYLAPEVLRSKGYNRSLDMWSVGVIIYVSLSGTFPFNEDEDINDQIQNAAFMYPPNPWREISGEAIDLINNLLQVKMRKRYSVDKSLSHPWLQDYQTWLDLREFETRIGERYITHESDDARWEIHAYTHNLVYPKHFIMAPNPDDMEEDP

Experiment [5] has as its target cAMP-dependent protein kinase catalytic subunit alpha (Homo sapiens, UniProt P17612).
Experiment [6] concerns the target Cyclin-dependent kinase 7 (Homo sapiens, UniProt P50613).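 Also: value comes from a kinome-wide kinase profiling panel in which CDK7 is one member.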
The target in experiment [7] is Mitogen-activated protein kinase 8 (Homo sapiens, UniProt P45983).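 Also: value comes from one member of a kinome-wide kinase profiling panel.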
Experiment [8] concerns the target Tyrosine-protein kinase JAK2 (Homo sapiens, UniProt O60674).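 Also: JAK2 tested as one member of a kinase panel.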
Experiment [9] concerns the target Dual specificity protein kinase CLK2 (Homo sapiens, UniProt P49760).
For experiment [10], the target named is Dual specificity tyrosine-phosphorylation-regulated kinase 1A (Homo sapiens, UniProt Q13627).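 Also: measured against DYRK1A as one member of a broad kinome profiling panel.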
Experiment [11] deals with T3, cAMP-dependent protein kinase catalytic subunit PRKX (Homo sapiens, UniProt P51817).
T3 sequence (P51817 whole entry): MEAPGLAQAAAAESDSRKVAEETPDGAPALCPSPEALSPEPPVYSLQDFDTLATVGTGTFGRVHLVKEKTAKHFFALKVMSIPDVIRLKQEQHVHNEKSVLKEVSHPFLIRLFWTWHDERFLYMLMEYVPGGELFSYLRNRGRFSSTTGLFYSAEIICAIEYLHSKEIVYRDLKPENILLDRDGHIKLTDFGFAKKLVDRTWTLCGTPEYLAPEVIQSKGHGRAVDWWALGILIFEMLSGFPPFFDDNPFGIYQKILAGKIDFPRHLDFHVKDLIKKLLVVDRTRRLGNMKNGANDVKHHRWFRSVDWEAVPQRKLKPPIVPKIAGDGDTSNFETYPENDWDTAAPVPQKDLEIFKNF

Experiment [12] concerns the target Fibroblast growth factor receptor 1 (Homo sapiens, UniProt P11362).
For experiment [13], the target named is Mitogen-activated protein kinase kinase kinase kinase 4 (Homo sapiens, UniProt O95819).
Sequence of Mitogen-activated protein kinase kinase kinase kinase 4 (O95819 whole entry): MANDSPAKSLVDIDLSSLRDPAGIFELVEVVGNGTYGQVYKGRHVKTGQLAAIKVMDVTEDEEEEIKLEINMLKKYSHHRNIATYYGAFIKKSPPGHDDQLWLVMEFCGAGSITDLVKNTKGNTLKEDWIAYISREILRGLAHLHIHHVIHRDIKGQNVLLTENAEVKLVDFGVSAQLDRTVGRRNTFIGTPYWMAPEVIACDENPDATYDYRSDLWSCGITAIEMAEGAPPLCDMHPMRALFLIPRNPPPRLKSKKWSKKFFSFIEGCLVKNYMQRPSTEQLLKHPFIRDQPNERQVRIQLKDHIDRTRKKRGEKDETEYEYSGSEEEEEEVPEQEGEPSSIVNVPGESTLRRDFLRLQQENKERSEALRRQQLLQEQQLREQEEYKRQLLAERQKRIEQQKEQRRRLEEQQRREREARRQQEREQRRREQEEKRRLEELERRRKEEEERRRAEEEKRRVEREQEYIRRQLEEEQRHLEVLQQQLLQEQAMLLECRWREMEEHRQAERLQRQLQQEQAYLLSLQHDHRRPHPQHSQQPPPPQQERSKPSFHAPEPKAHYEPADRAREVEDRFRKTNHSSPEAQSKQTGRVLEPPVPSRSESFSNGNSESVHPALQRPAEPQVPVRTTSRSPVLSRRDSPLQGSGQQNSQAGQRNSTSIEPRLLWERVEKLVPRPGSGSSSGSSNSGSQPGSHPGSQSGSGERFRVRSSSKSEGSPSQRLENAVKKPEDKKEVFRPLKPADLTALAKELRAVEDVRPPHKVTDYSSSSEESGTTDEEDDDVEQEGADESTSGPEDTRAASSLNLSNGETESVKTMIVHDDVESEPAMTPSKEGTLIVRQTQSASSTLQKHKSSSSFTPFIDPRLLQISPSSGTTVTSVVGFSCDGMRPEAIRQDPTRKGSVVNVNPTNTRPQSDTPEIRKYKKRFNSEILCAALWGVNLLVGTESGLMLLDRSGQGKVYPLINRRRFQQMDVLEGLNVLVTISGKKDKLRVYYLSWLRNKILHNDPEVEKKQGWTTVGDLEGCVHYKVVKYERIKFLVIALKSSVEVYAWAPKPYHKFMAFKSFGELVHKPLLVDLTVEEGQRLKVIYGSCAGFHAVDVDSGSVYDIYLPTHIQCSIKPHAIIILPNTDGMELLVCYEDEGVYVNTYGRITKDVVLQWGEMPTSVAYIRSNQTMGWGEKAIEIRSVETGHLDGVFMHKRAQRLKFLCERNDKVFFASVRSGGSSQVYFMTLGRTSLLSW
Experiment [14] has as its target Glycogen synthase kinase-3 alpha (Homo sapiens, UniProt P49840).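 Also: GSK3A result taken from a broad kinome-wide kinase panel.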
Experiment [15] has as its target Death-associated protein kinase 3 (Homo sapiens, UniProt O43293).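 Also: measured as one member of a kinome-wide profiling panel.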
The target in experiment [16] is Cyclin-dependent kinase 8 (Homo sapiens, UniProt P49336). Kind of experiment: Navigating the Kinome. Panel member name: CDK8.
Experiment [17] concerns the target Platelet-derived growth factor receptor alpha (Homo sapiens, UniProt P16234). Kind of experiment: Navigating the Kinome. Panel member name: PDGFRA.

Molecules are shown by their SMILES. The source made the active and inactive calls. Where only a bound is given, the exact number is not on record here.

Sequence of Cyclin-dependent kinase 7 (P50613 whole entry): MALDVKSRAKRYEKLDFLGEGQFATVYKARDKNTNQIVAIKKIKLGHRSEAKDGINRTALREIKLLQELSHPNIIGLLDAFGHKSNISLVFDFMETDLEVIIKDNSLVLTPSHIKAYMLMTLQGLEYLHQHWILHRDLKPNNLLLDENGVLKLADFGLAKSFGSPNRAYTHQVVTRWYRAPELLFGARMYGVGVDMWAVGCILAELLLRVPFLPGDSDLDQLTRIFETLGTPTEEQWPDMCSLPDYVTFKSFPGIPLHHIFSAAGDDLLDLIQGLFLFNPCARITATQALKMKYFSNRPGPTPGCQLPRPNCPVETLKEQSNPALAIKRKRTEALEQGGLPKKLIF
Sequence of Dual specificity protein kinase CLK2 (P49760 whole entry): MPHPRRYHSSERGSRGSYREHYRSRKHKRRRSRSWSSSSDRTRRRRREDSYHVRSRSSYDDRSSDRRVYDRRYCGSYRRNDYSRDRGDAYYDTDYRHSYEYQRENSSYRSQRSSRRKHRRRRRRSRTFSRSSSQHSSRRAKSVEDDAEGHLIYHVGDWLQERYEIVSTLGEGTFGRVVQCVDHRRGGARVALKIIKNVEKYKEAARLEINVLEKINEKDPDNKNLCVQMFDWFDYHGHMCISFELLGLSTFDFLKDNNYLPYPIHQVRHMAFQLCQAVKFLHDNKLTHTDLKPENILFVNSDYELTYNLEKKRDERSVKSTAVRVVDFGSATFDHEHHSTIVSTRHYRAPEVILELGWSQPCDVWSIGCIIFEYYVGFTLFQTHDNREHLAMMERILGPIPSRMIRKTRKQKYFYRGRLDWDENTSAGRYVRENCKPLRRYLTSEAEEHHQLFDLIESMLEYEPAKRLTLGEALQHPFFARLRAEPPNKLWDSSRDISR
Sequence of Death-associated protein kinase 3 (O43293 whole entry): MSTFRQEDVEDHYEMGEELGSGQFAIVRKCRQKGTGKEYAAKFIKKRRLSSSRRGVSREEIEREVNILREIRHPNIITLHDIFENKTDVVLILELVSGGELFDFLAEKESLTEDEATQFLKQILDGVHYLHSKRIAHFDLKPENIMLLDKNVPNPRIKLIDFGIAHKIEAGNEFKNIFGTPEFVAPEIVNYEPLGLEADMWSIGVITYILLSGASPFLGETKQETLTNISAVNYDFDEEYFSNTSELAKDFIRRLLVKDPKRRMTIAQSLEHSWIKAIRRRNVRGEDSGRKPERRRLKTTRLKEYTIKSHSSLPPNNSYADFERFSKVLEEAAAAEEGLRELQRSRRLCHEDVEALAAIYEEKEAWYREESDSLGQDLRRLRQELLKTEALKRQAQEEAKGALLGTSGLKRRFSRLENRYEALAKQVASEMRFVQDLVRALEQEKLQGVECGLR
Sequence of Vascular endothelial growth factor receptor 1 (P17948 whole entry): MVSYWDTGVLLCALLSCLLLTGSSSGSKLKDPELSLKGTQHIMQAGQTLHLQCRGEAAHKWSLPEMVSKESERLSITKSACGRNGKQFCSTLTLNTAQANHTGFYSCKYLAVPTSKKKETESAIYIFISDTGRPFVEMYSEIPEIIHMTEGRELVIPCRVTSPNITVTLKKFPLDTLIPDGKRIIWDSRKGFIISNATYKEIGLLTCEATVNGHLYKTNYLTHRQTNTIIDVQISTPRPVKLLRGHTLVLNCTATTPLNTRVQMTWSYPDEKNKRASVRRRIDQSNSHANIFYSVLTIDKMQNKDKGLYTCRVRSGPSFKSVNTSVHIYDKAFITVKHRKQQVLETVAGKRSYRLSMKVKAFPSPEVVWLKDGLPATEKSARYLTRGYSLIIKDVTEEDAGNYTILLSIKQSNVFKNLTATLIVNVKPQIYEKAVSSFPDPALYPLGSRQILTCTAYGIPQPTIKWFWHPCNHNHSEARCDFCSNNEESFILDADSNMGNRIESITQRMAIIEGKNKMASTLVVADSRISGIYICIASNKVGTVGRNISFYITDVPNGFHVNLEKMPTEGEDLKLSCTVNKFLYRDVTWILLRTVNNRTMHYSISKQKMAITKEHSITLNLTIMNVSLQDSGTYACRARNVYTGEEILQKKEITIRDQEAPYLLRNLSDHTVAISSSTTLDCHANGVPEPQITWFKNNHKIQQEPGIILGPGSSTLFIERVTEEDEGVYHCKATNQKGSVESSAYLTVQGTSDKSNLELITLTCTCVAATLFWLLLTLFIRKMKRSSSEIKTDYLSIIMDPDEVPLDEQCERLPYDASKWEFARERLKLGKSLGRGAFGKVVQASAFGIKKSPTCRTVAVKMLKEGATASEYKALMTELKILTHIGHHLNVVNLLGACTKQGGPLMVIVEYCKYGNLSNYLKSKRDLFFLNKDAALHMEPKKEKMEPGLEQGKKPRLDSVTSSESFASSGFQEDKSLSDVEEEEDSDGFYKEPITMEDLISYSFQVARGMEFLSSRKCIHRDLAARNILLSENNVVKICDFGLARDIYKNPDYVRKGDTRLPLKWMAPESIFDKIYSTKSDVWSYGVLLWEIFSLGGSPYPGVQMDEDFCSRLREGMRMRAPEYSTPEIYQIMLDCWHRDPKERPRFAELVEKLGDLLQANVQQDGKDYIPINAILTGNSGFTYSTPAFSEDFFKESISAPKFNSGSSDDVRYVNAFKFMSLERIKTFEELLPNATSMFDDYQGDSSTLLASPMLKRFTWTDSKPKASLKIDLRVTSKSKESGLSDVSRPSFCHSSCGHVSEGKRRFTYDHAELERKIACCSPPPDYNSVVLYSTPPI
Sequence of Tyrosine-protein kinase JAK2 (O60674 whole entry): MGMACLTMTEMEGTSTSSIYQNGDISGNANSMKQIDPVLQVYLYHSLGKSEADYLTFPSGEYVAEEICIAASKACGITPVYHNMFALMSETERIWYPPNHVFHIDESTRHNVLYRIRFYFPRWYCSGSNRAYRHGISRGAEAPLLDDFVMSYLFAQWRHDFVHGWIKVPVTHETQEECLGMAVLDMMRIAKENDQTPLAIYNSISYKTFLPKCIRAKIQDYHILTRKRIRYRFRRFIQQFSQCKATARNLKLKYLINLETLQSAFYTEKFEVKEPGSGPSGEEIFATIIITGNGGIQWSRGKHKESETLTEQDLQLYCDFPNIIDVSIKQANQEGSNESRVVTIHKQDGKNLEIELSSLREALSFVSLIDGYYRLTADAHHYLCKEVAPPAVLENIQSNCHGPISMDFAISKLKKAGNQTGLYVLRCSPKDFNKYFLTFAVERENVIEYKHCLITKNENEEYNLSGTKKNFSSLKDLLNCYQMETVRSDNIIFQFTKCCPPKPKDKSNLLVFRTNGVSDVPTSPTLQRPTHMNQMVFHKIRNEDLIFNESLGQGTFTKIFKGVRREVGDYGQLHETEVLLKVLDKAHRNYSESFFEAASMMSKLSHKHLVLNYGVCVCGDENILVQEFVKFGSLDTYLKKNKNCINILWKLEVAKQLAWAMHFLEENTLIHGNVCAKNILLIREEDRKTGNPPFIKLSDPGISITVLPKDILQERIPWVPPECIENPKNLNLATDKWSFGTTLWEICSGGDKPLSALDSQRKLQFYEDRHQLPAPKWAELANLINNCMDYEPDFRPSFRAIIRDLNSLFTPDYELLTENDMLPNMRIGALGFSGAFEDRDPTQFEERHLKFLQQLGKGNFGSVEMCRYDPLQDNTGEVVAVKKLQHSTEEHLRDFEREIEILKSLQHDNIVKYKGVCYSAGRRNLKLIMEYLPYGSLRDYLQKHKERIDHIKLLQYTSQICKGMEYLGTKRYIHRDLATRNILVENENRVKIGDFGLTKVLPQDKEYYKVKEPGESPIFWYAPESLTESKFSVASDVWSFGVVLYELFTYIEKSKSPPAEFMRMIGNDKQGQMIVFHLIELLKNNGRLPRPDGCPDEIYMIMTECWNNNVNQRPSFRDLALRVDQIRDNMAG

`NC1CCC(Nc2nccc(-c3c[nH]c4ncccc34)n2)CC1` (stereo not given): the Ki is > 0.398 µM (inactive) in experiment [1]; > 2 µM (inactive) in [2]; 0.251 µM (active) in experiment [3]; 0.00631 µM (active) in experiment [4]; 0.0501 µM (active) in [5]; 0.00398 µM (active) in experiment [6]. Also, the Ki was 0.1 µM (active) in experiment [7]; 0.251 µM (active) in experiment [8]; 0.00501 µM (active) in [9]; 0.00316 µM (active) in experiment [10]; 0.00631 µM (active) in experiment [11]; 3.98 µM (active) in experiment [12]. The Ki in [13] was 0.0631 µM (active); in experiment [14], 0.158 µM (active); in experiment [15], 0.158 µM (active).

In the case of `OCc1cc(-c2ccc3[nH]ncc3c2)on1`, the Ki is 25.1 µM (active) in [1]; 63.1 µM (active) in experiment [2]; 15.8 µM (active) in experiment [3]; 12.6 µM (active) in experiment [4]; 5.01 µM (active) in experiment [5]; 6.31 µM (active) in experiment [16]. In addition, the Ki in experiment [6] was 12.6 µM (active); in [7], 12.6 µM (active); in experiment [8], 25.1 µM (active); in experiment [9], 1 µM (active); in experiment [10], 0.398 µM (active); in [17], 39.8 µM (active). The Ki in experiment [11] was 15.8 µM (active); in [12], 20 µM (active); in experiment [13], 20 µM (active); in experiment [14], 2.51 µM (active); in [15], 3.98 µM (active).

`COC(C(=O)N1Cc2[nH]nc(NC(=O)c3ccc(N4CCN(C)CC4)cc3)c2C1)c1ccccc1` (stereo not given): the Ki is 0.0398 µM (active) in experiment [1]; > 2.51 µM (inactive) in experiment [2]; > 3.98 µM (inactive) in experiment [16]; > 2 µM (inactive) in [17]; > 2.51 µM (inactive) in experiment [11]; 0.794 µM (active) in [15].

With `CC(C)(O)c1cn(-c2ccc3[nH]ncc3c2)nn1`, the Ki was 79.4 µM (active) in experiment [1]; 25.1 µM (active) in [2]; 50.1 µM (active) in experiment [3]; 50.1 µM (active) in [4]; 10 µM (active) in [5]; 15.8 µM (active) in experiment [16]. The Ki was 10 µM (active) in experiment [6]; 20 µM (active) in experiment [7]; 31.6 µM (active) in experiment [8]; 6.31 µM (active) in experiment [9]; 5.01 µM (active) in [10]; 63.1 µM (active) in experiment [17]. Further, the Ki in [11] is 20 µM (active); in experiment [12] it was 39.8 µM (active); in experiment [13] it was 39.8 µM (active); in [14], 12.6 µM (active); in experiment [15], 2 µM (active).

By Ki is commonly meant the equilibrium dissociation constant of an inhibitor or competing ligand from its target.

The values above are taken from ChEMBL document CHEMBL1201862, “PubChem BioAssay data set” (2004).
